Data: patent publication US9139557B2, “Carboxamide compounds and their use as calpain inhibitors” (Abbott GmbH & Co. KG, priority 2006, dated 2015)

Legend:
Assay type in all cases: biochemical
cathepsin B = molecular target: T1, cathepsin B (Homo sapiens, UniProt P07858); assay: Cathepsin B enzyme inhibition in vitro (kinetic fluorescence assay); details: Ki(cathepsin B)/Ki(calpain) ratio
T1 construct: cathepsin B—isolated from human liver; purchased Calbiochem 219362; host or cells: human liver (tissue isolate)
Procedure: (§1) Testing for blockade of the corresponding enzymic activities was carried out by means of kinetic fluorescence assays (excitation 390 nm, emission 460 nm).
(§2) Apparent Ki values were calculated from the experimentally determined IC50 values by the Cheng-Prussoff relation assuming a reversible competitive enzyme inhibition. The Km values of the substrates used under the assay conditions indicated above were: 90 μM (Z-Phe-Arg-AMC, cathepsin B), 10 μM (Z-Gly-Pro-Arg-AMC, cathepsin K), 2 μM (Z-Phe-Arg-AMC, cathepsin L), and 30 μM (Z-Val-Val-Arg-AMC, cathepsin S).
(§3) The indicated Ki values are averages of the inhibition constants calculated on the basis of 2 to 4 independent dose-effect plots.
(§4) • 1. Calpain I: • 20 nM calpain-I—isolated from human erythrocytes (Calbiochem #208713), 100 μM Suc-Leu-Tyr-AMC (Bachem #1-1355) as substrate in buffer with 62 mM imidazole, 0.3 mM CaCl2, 0.10% CHAPS, 0.05% BSA, 1 mM DTT at pH 7.3 and room temperature. • 2. Cathepsin B: • 0.25 nM cathepsin B—isolated from human liver (Calbiochem #219362), 100 μM Z-Phe-Arg-AMC (Bachem #1-1160) as substrate 50 mM MES, 2 mM EDTA, 0.05% Brij 35, 2.5 mM L-cysteine, pH 6.0, room temperature. • 3. Cathepsin K: • 3 nM cathepsin K—activated from recombinant human procathepsin K from E. coli (Calbiochem #342001), 10 μM Z-Gly-Pro-Arg-AMC (Biomol #P-142) as substrate in 50 mM MES, 2 mM EDTA, 0.05% Brij 35, 2.5 mM L-cysteine, pH 6.0, room temperature. • 4. Cathepsin L: • 1 nM cathepsin L—isolated from human liver (Calbiochem #219402), 2 μM Z-Phe-Arg-AMC (Bachem #1-1160) as substrate in 50 mM MES, 2 mM EDTA, 0.05% Brij 35, 2.5 mM L-cysteine, pH 6.0, room temperature. • 5. Cathepsin S: • 0.5 nM recombinant human cathepsin S from E. coli (Calbiochem #219343), 20 μM Z-Val-Val-Arg-AMC (Bachem #1-1540) as substrate in 50 mM MES, 2 mM EDTA, 0.05% Brij 35, 2.5 mM L-cysteine, pH 6.0, room temperature.

cathepsin S = molecular target: T2, cathepsin S (Homo sapiens, UniProt P25774); assay: Cathepsin S enzyme inhibition in vitro (kinetic fluorescence assay); details: Ki(cathepsin S)/Ki(calpain) ratio
T2 construct: purchased Calbiochem 219343; host or cells: E. coli
Procedure: as §1, §2, §3, §4

cathepsin L = molecular target: T3, cathepsin L (Homo sapiens, UniProt P07711); assay: Cathepsin L enzyme inhibition in vitro (kinetic fluorescence assay); details: Ki(cathepsin L)/Ki(calpain) ratio
T3 construct: cathepsin L—isolated from human liver; purchased Calbiochem 219402; host or cells: human liver (tissue isolate)
Procedure: as §1, §2, §3, §4

T3 sequence (P07711 114-333): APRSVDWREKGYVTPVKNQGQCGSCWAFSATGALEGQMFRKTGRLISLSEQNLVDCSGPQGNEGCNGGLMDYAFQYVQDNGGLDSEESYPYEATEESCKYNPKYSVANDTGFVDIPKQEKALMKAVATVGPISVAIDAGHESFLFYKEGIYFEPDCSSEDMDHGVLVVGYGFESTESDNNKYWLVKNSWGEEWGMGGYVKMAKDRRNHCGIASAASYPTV
T2 sequence (P25774 115-331): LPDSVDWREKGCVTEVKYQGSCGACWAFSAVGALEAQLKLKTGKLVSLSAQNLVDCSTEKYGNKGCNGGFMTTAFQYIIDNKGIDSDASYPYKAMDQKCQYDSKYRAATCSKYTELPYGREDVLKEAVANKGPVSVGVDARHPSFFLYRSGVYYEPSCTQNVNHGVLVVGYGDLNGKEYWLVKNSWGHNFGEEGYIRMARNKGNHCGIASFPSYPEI

SMILES | Sel cat. B (cathepsin B) | Sel cat. S (cathepsin S) | Sel cat. L (cathepsin L)
CCCCC(NC(=O)c1cc(Cl)cnc1-n1ccc(-c2ccccc2)n1)C(=O)C(N)=O (centres unmarked) [Example 28, N-{1-[Amino(oxo)acetyl]pentyl}-5-chloro-2-(3-phenyl-1H-pyrazol-1-yl)nicotinamide] | + (+ means 10≦Ki(cathepsin B)/Ki(calpain)<30) | – | –
CC(C)c1ccc2c(c1)-c1nn(-c3ncccc3C(=O)NC(Cc3ccccc3)C(=O)C(N)=O)cc1CO2 (centres unmarked) [Example 144, N-[3-Amino-2,3-dioxo-1-(phenylmethyl)propyl]-2-[8-(1-methylethyl)chromeno[4,3-c]pyrazol-2(4H)-yl]pyridine-3-carboxamide] | + (+ means 10≦Ki(cathepsin B)/Ki(calpain)<30) | ++ (++ means a Ki(cathepsin S)/Ki(calpain) ratio of ≧100) | ++ (++ means a Ki(cathepsin L)/Ki(calpain) ratio of ≧50)
CC(C)CC(NC(=O)c1cc(Cl)cnc1-n1ccc(-c2ccccc2)n1)C(=O)C(N)=O (centres unmarked) [Example 32, N-{1-[Amino(oxo)acetyl]-3-methylbutyl}-5-chloro-2-(3-phenyl-1H-pyrazol-1-yl)nicotinamide] | + (+ means 10≦Ki(cathepsin B)/Ki(calpain)<30) | – | –
CCCCC(NC(=O)c1cccnc1-n1cnc(-c2ccc(N3CCOCC3)cc2)c1)C(=O)C(N)=O.Cl (centres unmarked) [Example 15, N-{1-[Amino(oxo)acetyl]pentyl}-2-[4-(4-morpholin-4-ylphenyl)-1H-imidazol-1-yl]nicotinamide hydrochloride] | – | + (+ means 50≦Ki(cathepsin S)/Ki(calpain)<100) | ++ (++ means a Ki(cathepsin L)/Ki(calpain) ratio of ≧50)
NC(=O)C(=O)C(Cc1ccccc1)NC(=O)c1cccnc1-n1cc2ccccc2n1 (centres unmarked) [Example 78, N-(3-Amino-1-benzyl-2,3-dioxopropyl)-2-(2H-indazol-2-yl)nicotinamide] | – | + (+ means 50≦Ki(cathepsin S)/Ki(calpain)<100) | ++ (++ means a Ki(cathepsin L)/Ki(calpain) ratio of ≧50)
Cc1cc(-c2ccccc2)nn1-c1ncccc1C(=O)NC(Cc1ccccc1)C(=O)C(N)=O (centres unmarked) [Example 61, N-(3-Amino-1-benzyl-2,3-dioxopropyl)-2-(5-methyl-3-phenyl-1H-pyrazol-1-yl)nicotinamide] | + (+ means 10≦Ki(cathepsin B)/Ki(calpain)<30) | ++ (++ means a Ki(cathepsin S)/Ki(calpain) ratio of ≧100) | –
CCCCC(NC(=O)c1cccnc1-n1ccc(-c2ccc(OC)cc2)n1)C(=O)C(N)=O (centres unmarked) [Example 49, N-{1-[Amino(oxo)acetyl]pentyl}-2-[3-(4-methoxyphenyl)-1H-pyrazol-1-yl]nicotinamide] | – | ++ (++ means a Ki(cathepsin S)/Ki(calpain) ratio of ≧100) | + (+ means 30≦Ki(cathepsin L)/Ki(calpain)<50)
NC(=O)C(=O)C(Cc1ccccc1)NC(=O)c1cccnc1-n1cnc(-c2ccc(Cl)cc2)c1 (centres unmarked) [Example 9, N-(3-Amino-1-benzyl-2,3-dioxopropyl)-2-[4-(4-chlorophenyl)-1H-imidazol-1-yl]nicotinamide] | – | ++ (++ means a Ki(cathepsin S)/Ki(calpain) ratio of ≧100) | + (+ means 30≦Ki(cathepsin L)/Ki(calpain)<50)
COc1ccc(-c2cn(-c3ncccc3C(=O)NC(Cc3ccccc3)C(=O)C(N)=O)cn2)cc1 (centres unmarked) [Example 13, N-(3-Amino-1-benzyl-2,3-dioxopropyl)-2-[4-(4-methoxyphenyl)-1H-imidazol-1-yl]nicotinamide] | – | + (+ means 50≦Ki(cathepsin S)/Ki(calpain)<100) | ++ (++ means a Ki(cathepsin L)/Ki(calpain) ratio of ≧50)
N#Cc1ccc(-c2ccn(-c3ncccc3C(=O)NC(Cc3ccccc3)C(=O)C(N)=O)n2)cc1 (centres unmarked) [Example 62, N-(3-Amino-1-benzyl-2,3-dioxopropyl)-2-[3-(4-cyanophenyl)-1H-pyrazol-1-yl]nicotinamide] | – | ++ (++ means a Ki(cathepsin S)/Ki(calpain) ratio of ≧100) | ++ (++ means a Ki(cathepsin L)/Ki(calpain) ratio of ≧50)
Cl.NC(=O)C(=O)C(Cc1ccccc1)NC(=O)c1cccnc1-n1cnc(-c2ccc(C(F)(F)F)cc2)c1 (centres unmarked) [Example 18, N-(3-Amino-1-benzyl-2,3-dioxopropyl)-2-{4-[4-(trifluoromethyl)phenyl]-1H-imidazol-1-yl}nicotinamide hydrochloride] | – | ++ (++ means a Ki(cathepsin S)/Ki(calpain) ratio of ≧100) | + (+ means 30≦Ki(cathepsin L)/Ki(calpain)<50)
NC(=O)C(=O)C(Cc1ccccc1)NC(=O)c1cccnc1-n1ccc(-c2ccc(N3CCCCC3)cc2)n1 (centres unmarked) [Example 64, N-(3-Amino-1-benzyl-2,3-dioxopropyl)-2-[3-(4-piperidin-1-ylphenyl)-1H-pyrazol-1-yl]nicotinamide] | + (+ means 10≦Ki(cathepsin B)/Ki(calpain)<30) | ++ (++ means a Ki(cathepsin S)/Ki(calpain) ratio of ≧100) | –
CCCCC(NC(=O)c1cccnc1-n1cnc(-c2ccc(C(F)(F)F)cc2)c1)C(=O)C(N)=O.Cl (centres unmarked) [Example 17, N-{1-[Amino(oxo)acetyl]pentyl}-2-{4-[4-(trifluoromethyl)phenyl]-1H-imidazol-1-yl}nicotinamide hydrochloride] | – | + (+ means 50≦Ki(cathepsin S)/Ki(calpain)<100) | ++ (++ means a Ki(cathepsin L)/Ki(calpain) ratio of ≧50)
CCCCC(NC(=O)c1cccnc1-n1ccc(-c2cccc(N3CCOCC3)c2)n1)C(=O)C(N)=O (centres unmarked) [Example 59, N-{1-[Amino(oxo)acetyl]pentyl}-2-[3-(3-morpholin-4-ylphenyl)-1H-pyrazol-1-yl]nicotinamide] | – | + (+ means 50≦Ki(cathepsin S)/Ki(calpain)<100) | ++ (++ means a Ki(cathepsin L)/Ki(calpain) ratio of ≧50)
CCCCC(NC(=O)c1cccnc1-n1ccc(-c2ccc(N3CCOCC3)cc2)n1)C(=O)C(N)=O (centres unmarked) [Example 33, N-{1-[Amino(oxo)acetyl]pentyl}-2-[3-(4-morpholin-4-ylphenyl)-1H-pyrazol-1-yl]nicotinamide] | + (+ means 10≦Ki(cathepsin B)/Ki(calpain)<30) | + (+ means 50≦Ki(cathepsin S)/Ki(calpain)<100) | –
NC(=O)C(=O)C(Cc1cccs1)NC(=O)c1cccnc1-n1ccc(-c2ccc(F)cc2)n1 (centres unmarked) [Example 57, N-[3-Amino-2,3-dioxo-1-(2-thienylmethyl)propyl]-2-[3-(4-fluorophenyl)-1H-pyrazol-1-yl]nicotinamide] | – | ++ (++ means a Ki(cathepsin S)/Ki(calpain) ratio of ≧100) | ++ (++ means a Ki(cathepsin L)/Ki(calpain) ratio of ≧50)
NC(=O)C(=O)C(Cc1ccccc1)NC(=O)c1cccnc1-n1cc(COc2ccccc2)c(-c2ccc(F)cc2)n1 (centres unmarked) [Example 179, N-[3-Amino-2,3-dioxo-1-(phenylmethyl)propyl]-2-{3-(4-fluorophenyl)-4-[(phenyloxy)methyl]-1H-pyrazol-1-yl}pyridine-3-carboxamide] | – | ++ (++ means a Ki(cathepsin S)/Ki(calpain) ratio of ≧100) | + (+ means 30≦Ki(cathepsin L)/Ki(calpain)<50)
NC(=O)C(=O)C(Cc1ccccc1)NC(=O)c1cccnc1-n1cc2c(n1)-c1ccccc1OCC2 (centres unmarked) [Example 141, N-[3-Amino-2,3-dioxo-1-(phenylmethyl)propyl]-2-(4,5-dihydro-2H-Mbenzoxepino[5,4-c]pyrazol-2-yl)pyridine-3-carboxamide] | – | ++ (++ means a Ki(cathepsin S)/Ki(calpain) ratio of ≧100) | ++ (++ means a Ki(cathepsin L)/Ki(calpain) ratio of ≧50)
